Among the data in patent US6071913A, “Angiotensin II receptor antagonistic 1,2,4-triazin-5-one derivatives” (Development Center for Biotechnology, priority 1997, dated 2000) are IC50 values, retold here.

A word on the IC50: it is the concentration needed to halve the response being measured.

The target in one experiment is T1, Angiotensin II Type I Receptor (Homo sapiens, UniProt P30556).
T1 construct: purchased NEN Research Products NED-014
T1 sequence (P30556 1-359): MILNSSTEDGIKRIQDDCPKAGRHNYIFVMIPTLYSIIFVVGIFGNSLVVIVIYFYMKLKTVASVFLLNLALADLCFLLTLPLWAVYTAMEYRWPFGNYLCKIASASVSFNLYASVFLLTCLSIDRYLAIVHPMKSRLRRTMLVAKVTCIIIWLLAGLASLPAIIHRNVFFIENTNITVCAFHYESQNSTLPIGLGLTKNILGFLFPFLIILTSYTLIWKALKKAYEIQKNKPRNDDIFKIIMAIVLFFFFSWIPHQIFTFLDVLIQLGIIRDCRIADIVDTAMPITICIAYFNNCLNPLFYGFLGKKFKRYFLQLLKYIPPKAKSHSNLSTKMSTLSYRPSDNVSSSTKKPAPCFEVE
In words: Binding affinity to Angiotensin II receptor ([125I]-Sar1,Ile8-Angiotensin II radioligand, Angiotensin II Type I Receptor Kit NED-014). The following applies: concentration of compound corresponding to 50% inhibition; EBDA software, inhibition at 7 different concentrations; 3 hours incubation; read-out: IC50. On the procedure: The binding affinity of the compounds of the above Examples I to IX to angiotensin II receptor was tested. The procedures and results are as follows:
Assay for the Binding Affinity to Angiotensin II Receptor
The antagonistic activity of angiotensin II receptor was assayed by Angiotensin II Type I Receptor Kit (NED-014 NENQUEST Drug Discovery System, NEN Research Products, Massachusettes, USA). The kit comprises Angiotensin II Type I Receptor Concentrate, radioligand [^125 I]-Sar^1,Ile^8 -Angiotensin II Concentrate (5 Ci), Standard Concentrate (DuP 753, […]), Diluent Concentrate, and Filter-Soak Concentrate. In accordance with the manual of
NED-014 kit, the Radioligand Concentrate, Receptor Concentrate and Filter-Soak Concentrate were diluted with deionized water, and stored under suitable temperatures (-70° C. or ambient temperature).
1. Filter Device: Hoefer FH 224 V, Hoefer Scientific Instruments Inc., California, USA; Vacuum pressure=15 in. Hg.
2. γ-Counter: Beckman 5500, Beckman Instruments Inc., […]., USA.
The reagents were thawed on ice on the day of assays. Two sets of tubes, each with two tubes, were used, one for non-specific binding (NSB) and the other for total binding (TB). A series of standard solutions (with the final concentrations of 0.5, 1, 2, 5, 10, 20, 50 and 100 nM) were prepared. The tested compounds were dissolved and diluted to 500 nM for preliminary screening. […] To the NSB tubes were added 25 μL Standard Concentrate solutions, to the TB tubes were added 25 μL Diluent Concentration, and to other tubes were added 25 μL the solutions of tested compounds. Then, 25 μL radioligand were added to each tube (including the two tubes for total counts, TC). The two TC tubes were used later for the determination of the dosage of radioligand added to each tube. To the rest tubes, 200 μL Receptor Concentration solutions were added. The tubes were allowed to stand for 3 hours to reach equibilium completely. Filter papers (Sigma Catalog No. 1822024) were soaked in the Filter-Soak solution, and placed in the filter device. The contents in the tubes were poured onto the filter papers, and washed with saline twice. The slightly dry filter papers were placed into the γ-counter and counted with two minutes counter.
The data are expressed as counts per minute (CPM). Net CPM for Specific Binding of standards or tested compounds is defined as the CPM thereof minus that of NSP and calculated by equation 1:
CPMnet =CPMtested compounds or standard -CPMnon-specific
With the above equation, the Net CPM for Specific Binding of tested compounds and standards can be obtained.
Inhibition (% B/B0) is defined as the net CPM for Specific Binding over that of standard at 0 concentration and calculated by equation 2:
Inhibition (% B/B0) of tested compound=CPMnet of standard at 0
IC50 is defined as the concentration of compound corresponding 50% inhibition. IC50 of tested compounds can be obtained with EBDA software by calculating the inhibition (% B/B0) of the tested compounds at 7 different concentrations. In addition, as the binding activity of a series of compounds is correlated with receptors, IC50 of the tested compounds can also be obtained by equation 3 established from known IC50 and inhibition (% B/B0) of the series compounds: […]
Regarding `CCCCc1nnc(CCc2ccccc2)c(=O)n1Cc1ccc(-c2ccccc2-c2nnn[nH]2)cc1` [T, 6-(2'-phenylethyl)-3-butyl-5-oxo-4-[[2'-(1H-tetrazol-5-yl)biphenyl-4-yl]methyl]-1,2,4-triazine], the IC50 was 55.1 nM.

For `CCCCc1nc(=O)c(-c2ccccc2)nn1Cc1ccc(-c2ccccc2-c2nnn[nH]2)cc1` [N, 6-phenyl-3-butyl-5-oxo-2-[[2'-(1H-tetrazol-5-yl)biphenyl-4-yl]methyl]-1,2,4-triazine], the IC50 worked out at 336 nM. The same measure, in the same setting: the value for `CCCCc1nc(=O)c(CCc2ccccc2)nn1Cc1ccc(-c2ccccc2-c2nnn[nH]2)cc1` [S, 6-(2'-phenylethyl)-3-butyl-5-oxo-2-[[2'-(1H-tetrazol-5-yl)biphenyl-4-yl]methyl]-1,2,4-triazine] was 67.5 nM.

Staying with this experiment, now noted: marked * Calculated; read-out: IC50 (*Calculated).
`CCCCc1nc(Cl)c(CCc2ccccc2)c(=O)n1Cc1ccc(-c2ccccc2-c2nnn[nH]2)cc1` [V, 2-butyl-5-(2'-phenylethyl)-6-chloro-3-[[2'-(1H-tetrazol-5-yl)biphenyl-4-yl]methyl]-4(3H)-pyrimidinone]: the IC50 is 72 nM. For the compound `CCCCc1nnc(C)c(=O)n1Cc1ccc(-c2ccccc2-c2nnn[nH]2)cc1` [L, 6-methyl-3-butyl-5-oxo-4-[[2'-(1H-tetrazol-5-yl)biphenyl-4yl]methyl]-1,2,4-triazine], the IC50 was 310 nM. On the same count and under the same terms, the value for `CCCCc1nnc(-c2ccccc2)c(=O)n1Cc1ccc(-c2ccccc2-c2nnn[nH]2)cc1` [O, 6-phenyl-3-butyl-5-oxo-4-[[2'-(1H-tetrazol-5-yl)biphenyl-4-yl]methyl]-1,2,4-triazine] was 62.6 nM.
